Patent publication US20080254010A1, “Controlling Clostridium difficile-Associated Disease in the Gastrointestinal Tract” (priority 2007, published 2008)

Tested on: C. difficile spores
Assay: Inhibition of germination of spores and/or inhibition of growth in Duncan and Foster growth medium
Type: cell-based, Clostridium difficile
Conditions: Clostridioides difficile; 0.7 mM in growth medium; by 17 h; read-out: inhibition of spore germination

CC/C=C\C/C=C\C/C=C\CCCCCCCC(=O)O [linolenic acid]
inhibition at 700 µM: ~5%
